From ChEMBL document CHEMBL1201862, “PubChem BioAssay data set” (2004)
Active and inactive are the calls of the source.

What was measured:
[1] = biological target: Cytochrome P450 2D6 (Homo sapiens, UniProt P10635); test: qHTS Assay for Inhibitors and Substrates of Cytochrome P450 2D6. [Related pubchem assays: 410 ]; format: ADME; conditions: read-out: Potency
[2] = system: Streptococcus sp. 'group A'; test: growth inhibition of control SK(-) GAS strain, dose response, counter-screen for streptokinase expression inhibitor project, luminescence, kanamycin, BacTiterGlo, confirmation (AID 1900); format: functional, organism-based
[3] = Artemis endonuclease inhibitor potency, dose response, biochemical, fluorescence intensity (AID 720701); format: functional;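 also: Artemis endonuclease enzyme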
[4] = insulin promoter down-regulators in MIN6 cells, imaging, high-content screening, mouse beta cells (AID 1628); format: functional
[5] = biological target: Serine/threonine-protein phosphatase (Homo sapiens, UniProt Q9BPW0); test: Counterscreen for inhibitors of PP1: fluorescence-based biochemical high throughput dose response assay to identify inhibitors of Protein Phosphatase 5 (PP5). [Related pubchem assays: 2034 (Summary (PP5 inhibitors)), 1987 (PP5 inhibitors in singlate), 2235 (PP1 inhibitors in singlate)]
Chain of Serine/threonine-protein phosphatase (Q9BPW0 whole entry): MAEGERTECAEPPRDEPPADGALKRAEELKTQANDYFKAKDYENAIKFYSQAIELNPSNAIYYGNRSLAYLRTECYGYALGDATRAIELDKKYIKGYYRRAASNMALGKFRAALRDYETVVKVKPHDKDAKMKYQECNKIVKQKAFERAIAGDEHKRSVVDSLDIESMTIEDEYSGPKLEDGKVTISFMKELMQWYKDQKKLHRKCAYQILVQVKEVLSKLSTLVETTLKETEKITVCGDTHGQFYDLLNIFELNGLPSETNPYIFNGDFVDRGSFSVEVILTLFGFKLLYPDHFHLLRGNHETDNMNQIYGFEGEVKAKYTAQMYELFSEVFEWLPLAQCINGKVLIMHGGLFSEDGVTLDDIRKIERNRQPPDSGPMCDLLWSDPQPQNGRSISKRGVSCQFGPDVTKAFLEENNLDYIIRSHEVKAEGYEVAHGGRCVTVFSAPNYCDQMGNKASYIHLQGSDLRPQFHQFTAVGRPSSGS

[6] = system: Streptococcus; test: Group A Streptococcus viability loss, dose response, counter-screen for streptokinase expression inhibitor project, luminescence, BacTiterGlo (AID 1915); format: functional, organism-based;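 also: potency for reduction of bacterial viability or growth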
[7] = biological target: Serine/threonine-protein phosphatase PP1-alpha catalytic subunit (Homo sapiens, UniProt P62136); test: PP1 phosphatase inhibitors, dose response, biochemical, fluorescence (AID 2403);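 also: phosphatase turnover of OMFP into fluorescent 3-O-methylfluorescein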
Chain of Serine/threonine-protein phosphatase PP1-alpha catalytic subunit (P62136 whole entry): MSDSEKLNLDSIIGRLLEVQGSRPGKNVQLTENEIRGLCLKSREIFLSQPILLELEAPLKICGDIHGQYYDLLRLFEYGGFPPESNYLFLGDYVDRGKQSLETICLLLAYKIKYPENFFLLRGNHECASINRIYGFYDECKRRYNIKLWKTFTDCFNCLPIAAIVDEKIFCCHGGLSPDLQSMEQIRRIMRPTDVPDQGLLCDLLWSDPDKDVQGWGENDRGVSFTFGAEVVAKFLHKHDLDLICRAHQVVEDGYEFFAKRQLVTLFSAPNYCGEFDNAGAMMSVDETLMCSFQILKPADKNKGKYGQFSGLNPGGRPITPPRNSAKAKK

[8] = cytotoxicity in MIN6 insulinoma cells, dose response, cytotoxicity control, cell-based, mouse insulinoma (AID 2122); format: functional;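 also: confirmatory high-throughput counterscreen run to flag cytotoxic compounds; mouse MIN-6 beta cells carrying an insulin promoter eGFP reporter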
[9] = system: INS1; test: beta cell apoptosis inhibitors, cytokine rescue, dose response, luminescence, retest (AID 449756); format: functional, cell-based; conditions: Rattus norvegicus;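 also: cell death triggered by IL-1 beta plus TNF-alpha plus IFN-gamma mixture; protective hits raise ATP signal compared with cytokine alone wells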
[10] = luciferase reporter signal reduction – luminescence, H4-C neuroglioblastoma cells, dose response (AID 2458); format: functional, cell-based;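 also: H4 neuroglioblastoma cells stably carrying a luciferase reporter gene fusion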
[11] = inhibitors of SNCA 5'UTR-driven reporter translation, confirmation, H4 neuroglioma cells, luminescence (AID 1988); format: functional, cell-based
[12] = inhibitors of firefly luciferase expression or activity, dose response, H4 neuroglioma cells, luminescence (AID 1990); format: functional, cell-based
[13] = cells; format: functional, cell-based
[14] = inhibitors of SNCA 5'UTR-driven translation, confirmation, luminescence, H4 neuroglioblastoma cells, dose confirmation (AID 2454); format: functional, cell-based;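 also: H4 neuroglioblastoma cells carrying an alpha-synuclein 5'UTR luciferase reporter; potency for inhibition of the luciferase signal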
[15] = Luminescence Cell-Based Dose Response HTS to Identify Inhibitors of 5'UTR Stem-Loop Driven Prion Protein mRNA Translation in H4 Neuroglioblastoma Cells. [Related pubchem assays: 1827 (Project Summary), 1813 (Primary HTS)]; format: functional
[16] = Jurkat T cell cytotoxicity, dose response, cytotoxicity control for P. falciparum gametocyte viability project, luminescence (AID 1117277); format: functional, cell-based;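 also: potency reflects loss of cellular ATP meaning fewer viable cells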
[17] = biological target: Neuropeptide Y receptor type 1 (Homo sapiens, UniProt P25929); test: Fluorescence-based counterscreen for agonists of NPY-Y2: cell-based high-throughput dose response assay for agonists of NPY-Y1.; format: functional
Chain of Neuropeptide Y receptor type 1 (P25929 whole entry): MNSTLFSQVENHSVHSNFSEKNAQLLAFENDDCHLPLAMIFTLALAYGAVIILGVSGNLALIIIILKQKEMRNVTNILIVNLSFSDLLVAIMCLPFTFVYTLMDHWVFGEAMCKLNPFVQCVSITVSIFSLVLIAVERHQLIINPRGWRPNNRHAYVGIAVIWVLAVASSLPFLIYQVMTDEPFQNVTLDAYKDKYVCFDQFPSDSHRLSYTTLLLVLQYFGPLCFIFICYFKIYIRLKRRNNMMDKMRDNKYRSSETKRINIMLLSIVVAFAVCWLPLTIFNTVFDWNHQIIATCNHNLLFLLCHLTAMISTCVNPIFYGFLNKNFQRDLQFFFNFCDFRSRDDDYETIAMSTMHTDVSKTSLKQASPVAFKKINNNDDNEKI

[18] = P. falciparum late gametocyte killing, dose response, luminescence (AID 1117278); format: functional, cell-based;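 also: gametocytes exposed to compound for 24 hours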
[19] = system: HEK293; test: Fluorescence-based counterscreen for potentiators or agonists of NPY-Y2: cell-based high-throughput dose response assay to identify inhibitors of cyclic nucleotide gated ion channel (CNGC) activity. In this assay, the parental HEK293 cell line transfected with a cyclic-nucleotide gated ion channel (CNGC)-based cAMP sensor is used to measure inhibition of isoproterenol-induced CNGC activity by test compound.; format: functional; conditions: Homo sapiens;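 also: stimulus is 1 µM isoproterenol at EC100 plus PDE inhibitor Ro 20-1724 at 25 µM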
[20] = biological target: Neuropeptide Y receptor type 2 (Homo sapiens, UniProt P49146); test: Fluorescence-based cell-based high-throughput dose response assay for agonists of NPY-Y2. [Related pubchem assays: 1703 (Screening assay (CNGC inhibitors).), 1359 (Screening assay (NPY-Y2 potentiators or agonists).), 1304 (Screening assay (NPY-Y1 potentiators or agonists).), 1710 (Screening assay (NPY-Y2 agonists).), 1791 (Summary AID.)]; format: functional
Chain of Neuropeptide Y receptor type 2 (P49146 whole entry): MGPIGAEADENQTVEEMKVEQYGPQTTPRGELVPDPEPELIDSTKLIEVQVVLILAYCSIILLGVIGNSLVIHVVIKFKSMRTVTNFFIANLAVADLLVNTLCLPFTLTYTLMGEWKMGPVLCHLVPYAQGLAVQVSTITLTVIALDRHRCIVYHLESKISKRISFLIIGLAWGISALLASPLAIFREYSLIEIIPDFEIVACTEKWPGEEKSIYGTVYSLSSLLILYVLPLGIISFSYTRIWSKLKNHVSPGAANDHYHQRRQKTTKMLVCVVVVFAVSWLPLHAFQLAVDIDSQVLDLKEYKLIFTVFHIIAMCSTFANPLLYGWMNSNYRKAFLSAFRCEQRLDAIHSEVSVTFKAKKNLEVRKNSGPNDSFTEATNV

[21] = StAR promoter reporter inhibition counter-screen, dose response, counter-screen for LRH-1 inverse agonist project, cell-based, luminescence, luciferase reporter (AID 651969); format: functional
[22] = biological target: Steroidogenic factor 1 (Homo sapiens, UniProt Q13285); test: Counterscreen for inverse agonists of the liver receptor homolog-1 (LRH-1; NR5A2): Luminescence-based cell-based high throughput dose response assay to identify inverse agonists of the Steroidogenic Factor 1 Nuclear Receptor (SF1; NR5A1).; format: functional
Chain of Steroidogenic factor 1 (Q13285 whole entry): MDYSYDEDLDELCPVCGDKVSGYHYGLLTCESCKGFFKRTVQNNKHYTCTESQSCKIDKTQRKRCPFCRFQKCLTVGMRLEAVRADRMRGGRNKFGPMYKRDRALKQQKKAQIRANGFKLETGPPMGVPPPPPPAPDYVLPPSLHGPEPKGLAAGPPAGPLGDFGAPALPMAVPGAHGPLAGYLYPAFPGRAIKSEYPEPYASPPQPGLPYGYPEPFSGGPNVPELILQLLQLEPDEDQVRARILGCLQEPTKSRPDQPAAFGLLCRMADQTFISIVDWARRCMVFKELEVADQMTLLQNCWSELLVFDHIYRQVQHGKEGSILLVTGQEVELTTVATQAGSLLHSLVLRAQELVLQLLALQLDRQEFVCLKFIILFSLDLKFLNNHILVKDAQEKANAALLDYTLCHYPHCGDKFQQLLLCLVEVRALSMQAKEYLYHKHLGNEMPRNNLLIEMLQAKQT

[23] = biological target: Nuclear receptor subfamily 5 group A member 2 (Homo sapiens, UniProt O00482); format: functional, cell-based;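 also: HEK293T cells transfected with LRH-1 and a StAR promoter luciferase reporter; potency for inhibitors that lower LRH-1 driven reporter light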
Chain of Nuclear receptor subfamily 5 group A member 2 (O00482 whole entry): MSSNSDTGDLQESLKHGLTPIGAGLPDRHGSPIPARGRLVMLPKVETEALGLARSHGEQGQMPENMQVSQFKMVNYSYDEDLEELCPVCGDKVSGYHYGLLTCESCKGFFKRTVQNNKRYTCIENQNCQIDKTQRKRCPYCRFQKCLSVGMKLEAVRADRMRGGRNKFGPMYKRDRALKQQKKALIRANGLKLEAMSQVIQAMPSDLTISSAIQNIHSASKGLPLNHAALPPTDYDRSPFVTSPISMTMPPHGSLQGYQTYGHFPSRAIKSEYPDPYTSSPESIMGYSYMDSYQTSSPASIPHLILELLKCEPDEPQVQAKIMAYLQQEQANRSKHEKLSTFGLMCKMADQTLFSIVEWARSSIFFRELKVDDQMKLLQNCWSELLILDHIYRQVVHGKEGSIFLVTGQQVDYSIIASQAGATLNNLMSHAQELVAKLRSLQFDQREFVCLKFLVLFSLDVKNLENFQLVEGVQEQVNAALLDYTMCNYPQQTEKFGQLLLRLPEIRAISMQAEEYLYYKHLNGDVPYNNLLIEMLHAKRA

[24] = enhancers of respiration in Yfh1-depleted yeast, dose response, Friedreich's ataxia, plus single-dose screen (AID 1465); format: functional;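 also: yeast depleted of Yfh1p frataxin homolog grown on glycerol needing respiration; WST-1 tetrazolium dye reduction as measure of cellular dehydrogenase metabolic activity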
[25] = biological target: Mothers against decapentaplegic homolog 3 (Homo sapiens, UniProt P84022); test: Smad3 binding inhibitors, lysate ELISA, dose response, cell lysate, secondary confirmation, chemiluminescent ELISA, HEK293 lysate (AID 1058); format: functional
Chain of Mothers against decapentaplegic homolog 3 (P84022 whole entry): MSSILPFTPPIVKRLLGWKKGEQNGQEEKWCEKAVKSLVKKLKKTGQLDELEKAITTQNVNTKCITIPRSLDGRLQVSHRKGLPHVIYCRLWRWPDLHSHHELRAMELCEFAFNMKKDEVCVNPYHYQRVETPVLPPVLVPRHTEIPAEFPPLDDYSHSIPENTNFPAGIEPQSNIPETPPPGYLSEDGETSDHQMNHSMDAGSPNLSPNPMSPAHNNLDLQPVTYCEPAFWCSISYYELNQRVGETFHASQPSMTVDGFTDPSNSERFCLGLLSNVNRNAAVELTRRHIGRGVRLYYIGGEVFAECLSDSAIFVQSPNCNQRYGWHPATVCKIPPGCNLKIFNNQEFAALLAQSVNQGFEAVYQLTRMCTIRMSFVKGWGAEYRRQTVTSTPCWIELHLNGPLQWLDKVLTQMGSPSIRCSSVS

Chain of Cytochrome P450 2D6 (P10635 whole entry): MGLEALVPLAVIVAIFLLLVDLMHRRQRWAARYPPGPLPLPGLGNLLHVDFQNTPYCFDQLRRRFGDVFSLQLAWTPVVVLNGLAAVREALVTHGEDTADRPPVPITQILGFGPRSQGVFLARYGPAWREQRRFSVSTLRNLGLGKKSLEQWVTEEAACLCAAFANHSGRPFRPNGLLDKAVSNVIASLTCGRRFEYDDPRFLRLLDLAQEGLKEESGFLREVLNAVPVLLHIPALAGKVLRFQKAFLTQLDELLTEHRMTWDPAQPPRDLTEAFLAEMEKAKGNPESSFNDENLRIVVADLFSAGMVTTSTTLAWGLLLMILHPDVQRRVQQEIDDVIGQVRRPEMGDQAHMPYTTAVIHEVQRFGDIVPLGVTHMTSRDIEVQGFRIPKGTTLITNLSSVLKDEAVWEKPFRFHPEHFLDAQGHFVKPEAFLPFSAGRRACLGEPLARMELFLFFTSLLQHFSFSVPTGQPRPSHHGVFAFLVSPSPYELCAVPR

In the case of CCN1C(C)=C(C(=O)OC)C(c2ccccc2)N2C(=O)[C@](O)(C(=O)OC)C(c3ccccc3)C(C(=O)c3ccccc3)=C12 (stereo not given in full), the AC50 [1] is reported as 3.16 µM (inconclusive).
For c1ccc(N2CCN(c3nc(-c4ccccn4)nc4ccccc34)CC2)cc1, the EC50 [2] was 0.433 µM (active), the IC50 [3] was 3.59 µM (active) and the IC50 [4] was 2.4 µM (active). The IC50 [5] was > 22.3 µM (not active), the EC50 [6] was 8.15 µM (active) and the IC50 [7] was 6.28 µM (active). For the same molecule, the IC50 [8] was 1.67 µM (active) and the AC50 [9] was 3.01 µM (active).
With CC(C)(C)c1ccc(Oc2ccc(N)cn2)cc1 [LIMANTRAFIN] the EC50 [10] was 0.803 µM (active), the EC50 [11] was < 0.1 µM (active) and the EC50 [12] was < 0.1 µM (active). The EC50 [13] was 2.75 µM (active), the EC50 [14] was 1.05 µM (active) and the EC50 [15] was 5.68 µM (active).
With O=C(O)c1ccc(OCc2cn3ccccc3n2)cc1 the IC50 [16] was > 83.2 µM (inactive), the EC50 [17] was > 35.4 µM (not active) and the IC50 [18] was > 109 µM (inactive). The EC50 [19] was > 35.4 µM (not active) and the EC50 [20] was > 35.4 µM (not active).
In the case of CC1CC(C)CN(c2cc(N(C)CCO)c([N+](=O)[O-])c3nonc23)C1 (stereo not given), the IC50 [21] is reported as 35.9 µM (inactive), the IC50 [22] is reported as 2.15 µM (active) and the IC50 [23] is reported as 6.21 µM (active). The EC50 [24] was > 100 µM (active).
In the case of Oc1cc2c(cc1C(c1ccc(F)cc1)N1CCCC1)OCO2 (stereo not given), the IC50 [25] is reported as 23.3 µM (not active).
